The record followed here is PubChem BioAssay (NCI).

Some test systems named below: 786-0 renal; HOP-92 NSCLC; HT29 colon; SNB-75 CNS; HL-60(TB) leukemia; SK-MEL-2 melanoma; SF-539 CNS; OVCAR-3 ovarian; SK-OV-3 ovarian; PC-3 prostate.
Holding throughout (assay): inhibition of tumour cell growth, NCI panel, 48 h

Structures are written as SMILES.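 Where inhibition never reached the appropriate level, the endpoint shown equals the highest concentration tested. Otherwise, values were interpolated linearly from a five-concentration, 48-hour dose response in 96-well plates. Abbreviation: GI50, concentration required for 50% inhibition of growth. TGI: concentration producing complete growth inhibition.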 Bounds are passed on as bounds.

On to `N#CCc1ccc(C(C#N)/C(CCCC(=O)Nc2cccc([N+](=O)[O-])c2)=N\NC(=O)NN)cc1` (stereo unspecified), for which the TGI in the test with 786-0 renal, in the test with HOP-92 NSCLC, with HT29 colon, in the test on SNB-75 CNS, in the test on HL-60(TB) leukemia and with SK-MEL-2 melanoma was above 100 µM throughout. Further, the TGI in the test with SF-539 CNS, in the test on OVCAR-3 ovarian and in the test with SK-OV-3 ovarian was above 100 µM throughout.
For the molecule `C1CNCCNCCNCCN1`, the TGI in the test on 786-0 renal, with HT29 colon, in the test with SNB-75 CNS, in the test with HL-60(TB) leukemia, with SK-MEL-2 melanoma and in the test on SF-539 CNS was above 100 µM each time. Moreover, the TGI in the test on OVCAR-3 ovarian and with SK-OV-3 ovarian was above 100 µM in each case.
Regarding `O=C1CCCCCCCCCCC(=O)C2CCOCCOCCOCCC1Cc1cccc(n1)C2`, the TGI with 786-0 renal, in the test with HT29 colon, in the test on SNB-75 CNS, in the test on SK-MEL-2 melanoma, in the test on SF-539 CNS and in the test with OVCAR-3 ovarian was above 100 µM throughout. Also, the TGI with SK-OV-3 ovarian is above 100 µM.
For the molecule `CC(=O)NC1=C(Nc2ccc(C)cc2)C(=O)c2ccccc2C1=O`, the TGI in the test with 786-0 renal was 39.3 µM; in the test on HT29 colon it was 31.9 µM; in the test with SNB-75 CNS, 22.6 µM; in the test on HL-60(TB) leukemia it was 41.1 µM; in the test on SK-MEL-2 melanoma, 56.7 µM; with SF-539 CNS, 33 µM. Further, the TGI with OVCAR-3 ovarian was 45.7 µM; in the test with SK-OV-3 ovarian, above 75 µM.
On to `COC(=O)/C=C(C)/C=C/c1cc(C(C)=O)c(C)o1`, for which the TGI in the test with 786-0 renal, with HOP-92 NSCLC, with HT29 colon, with SNB-75 CNS, in the test on HL-60(TB) leukemia and in the test with SK-MEL-2 melanoma was above 100 µM each time. Moreover, the TGI in the test on SF-539 CNS, in the test on OVCAR-3 ovarian and in the test on SK-OV-3 ovarian was above 100 µM throughout.
Take `C=CC[C@H]1C[C@@]2(C)OC[C@H](C(C)C)N2C1=O`: the TGI in the test with 786-0 renal, in the test on HOP-92 NSCLC, in the test with HT29 colon, in the test on SNB-75 CNS, in the test on SK-MEL-2 melanoma and in the test with SF-539 CNS was above 100 µM throughout. Also, the TGI in the test with OVCAR-3 ovarian was above 100 µM.
In the case of `O=[N+]([O-])c1ccc(Sc2c3ccccc3nc3ccccc23)cc1`, the TGI in the test on 786-0 renal, with HT29 colon, with SNB-75 CNS, with HL-60(TB) leukemia, in the test on SK-MEL-2 melanoma and with SF-539 CNS was above 100 µM each time. The same molecule displayed a TGI in the test on OVCAR-3 ovarian above 100 µM.
Consider `NCCCN(CCCN)CCCNCc1c2ccccc2c(CNCCCN(CCCN)CCCN)c2ccccc12`, for which the TGI worked out at 23.4 µM in the test with 786-0 renal; 89.1 µM in the test on HOP-92 NSCLC; 37.5 µM in the test on HT29 colon; 34.3 µM in the test with SNB-75 CNS; 38 µM in the test with HL-60(TB) leukemia; 54.9 µM in the test on SK-MEL-2 melanoma. For the same molecule, the TGI in the test on SF-539 CNS was found to be 30.2 µM; in the test with OVCAR-3 ovarian it was 38.6 µM.
Regarding `S=c1[nH]c(=S)c2sc(=S)n(-c3ccccc3)c2[nH]1`, the TGI in the test on 786-0 renal, with HOP-92 NSCLC, in the test on HT29 colon, in the test with SNB-75 CNS, with HL-60(TB) leukemia and with SK-MEL-2 melanoma was above 100 µM in each case. In addition, the TGI in the test with SF-539 CNS, in the test on OVCAR-3 ovarian and in the test on SK-OV-3 ovarian was above 100 µM in each case.
On to `CC1Cc2c(N)nc(NN)nc2NC1=O` (stereo unspecified), for which the TGI with 786-0 renal, in the test on HT29 colon, in the test with SNB-75 CNS, in the test with HL-60(TB) leukemia, with SF-539 CNS and with OVCAR-3 ovarian was above 100 µM throughout. In the test on SK-OV-3 ovarian, this molecule showed a TGI above 100 µM.
`CCOc1cc2c(cnc3c4cc(OC)c(OC)cc4ccc23)cc1OC`: the TGI in the test with 786-0 renal, with HT29 colon, with SNB-75 CNS, with SK-MEL-2 melanoma, with SF-539 CNS and with OVCAR-3 ovarian was above 100 µM throughout. In addition, in the test on SK-OV-3 ovarian, the TGI is above 100 µM.
In the case of `COC1/C(=C\C(=O)OC(C)(C)C)c2ccccc2N1C(C)=O` (stereo unspecified), the TGI with 786-0 renal, in the test with HT29 colon, with SNB-75 CNS, in the test on HL-60(TB) leukemia, in the test with SK-MEL-2 melanoma and in the test with SF-539 CNS was above 100 µM each time. Besides, the TGI in the test with OVCAR-3 ovarian and with SK-OV-3 ovarian was above 100 µM throughout.
For `Clc1ccc(-n2nnc(C3=NCCCN3)c2-c2ccccc2)cc1`, the TGI with 786-0 renal, in the test on HOP-92 NSCLC, in the test with HT29 colon, in the test on SNB-75 CNS, in the test with HL-60(TB) leukemia and in the test on SK-MEL-2 melanoma was above 100 µM throughout. Also, the TGI in the test on SF-539 CNS, with OVCAR-3 ovarian and in the test on SK-OV-3 ovarian was above 100 µM in each case.
With `CC(C)=CC(=O)Oc1ccc([N+](=O)[O-])cc1`, the TGI is above 100 µM with 786-0 renal; above 100 µM in the test on HOP-92 NSCLC; above 100 µM in the test with HT29 colon; above 100 µM in the test on SNB-75 CNS; 59.5 µM with HL-60(TB) leukemia; above 100 µM in the test on SK-MEL-2 melanoma. The TGI in the test on SF-539 CNS, in the test on OVCAR-3 ovarian and in the test on SK-OV-3 ovarian was above 100 µM each time.
`COc1ccc2nc(-c3ccccc3)cc(Nc3ccc(C(C)=O)cc3)c2c1`: the GI50 in the test with 786-0 renal is 1.31 µM; in the test with HT29 colon, 9.89 µM; in the test with SNB-75 CNS it was 17.9 µM; with SK-MEL-2 melanoma, 38.7 µM; in the test on SF-539 CNS, 2.37 µM; in the test with PC-3 prostate, 1.16 µM. The GI50 with SK-OV-3 ovarian was 16.1 µM. The TGI was 3.54 µM in the test with 786-0 renal; above 100 µM in the test on HT29 colon; 42.5 µM in the test on SNB-75 CNS; above 100 µM in the test with SK-MEL-2 melanoma; 4.21 µM in the test with SF-539 CNS; 4.63 µM in the test with PC-3 prostate. The molecule also came in with a TGI in the test on SK-OV-3 ovarian of 36.9 µM.
